# Measured values taken from PMC10377753, “Pharmacokinetic and pharmacodynamic properties of polymyxin B in Escherichia coli and Klebsiella pneumoniae murine infection models” (Journal of Antimicrobial Chemotherapy, 2023).
# Where a name gives a salt, the structure may show the parent alone. Bridge positions count the residues as written; N and C are the ends. Square brackets hold non-standard residues; d marks the D form. Peptide text beside a SMILES is read from it. * marks the point of attachment. X1 = CC[C@H](C)CCCCC(=O)*; Dab = NCC[C@H](N)C(=O)O
# Columns and labels:
# plasma proteins [1] = details: mouse, spiked pooled plasma, ultracentrifugation; cited from earlier work
# Description: Protein binding of polymyxin B is known to be high. However, a difference was found between the current study (unbound fraction 20%) compared with previous studies (8.6% for polymyxin B,[8] 8.4% for colistin[5]), which affects the PTA. In the present study, ultrafiltration was used for determining the unbound fraction, whilst ultracentrifugation was used in the other studies. With the ultrafiltration method, correction for the NSB to the ultrafiltration membranes was needed. In addition, differences in mouse plasma used for determination of polymyxin B protein binding may (partly) explain the ...
# plasma proteins [2] = test: Plasma protein binding by ultrafiltration; format: in vitro ADME; details: plasma of infected mice treated with polymyxin B, corrected for non-specific binding, LC-MS/MS, mean ± SD, no concentration dependency
# Method: The binding of polymyxin B to plasma proteins was determined via ultrafiltration. Polymyxins have a tendency to non-specifically bind to different kinds of material, including ultrafiltration filters. Thus, to correct for polymyxin B loss on the filter, an experiment was performed in which ultrafiltrated (UF) phosphate buffer was spiked with multiple polymyxin B concentrations (ranging from 0.75 to 8 mg/L) and subsequently concentrations were measured. […] Using this relationship, the non-specific binding (NSB) for each measured polymyxin B UF concentration was calculated. Correction for the measured polymyxin B UF concentration using this NSB value was according to the following formula: polymyxin B UF Corrected Concentration = Measured polymyxin B UF Concentration × (1−NSB).
# Polymyxin B concentrations in plasma, BAL and ultrafiltrates were determined by a validated LC-MS/MS method,[18] with a lower limit of quantification (LOQ) of 0.2 mg/L for plasma and 0.05 mg/L for BAL fluid and ultrafiltrates. […] The residues were dissolved in 0.1 mL of 0.1% formic acid in water and analysed by LC-MS/MS. […] Polymyxin B was analysed on an XBridge C18 column (5 µm, 2.1 × 150 mm; Waters). […] Calibration curves of polymyxin B ranged from 0.1 to 10 mg/L for plasma and ultrafiltrates, and were quantified with a quadratic regression mode. […]
# [3] = Tolerability of subcutaneous dosing in infected neutropenic mice; format: in vivo
# Method: Dose-fractionation studies were performed for E. coli ATCC 25922 and K. pneumoniae 104 in the thigh infection model. Two hours after infection, treatment with polymyxin B was administered subcutaneously over 24 h at the following dosing regimens: 4–128 mg/kg q6h [total daily dose (TDD) 16–512 mg/kg]; 8–256 mg/kg q12h (TDD 16–512 mg/kg); 256–512 mg/kg q24h (TDD 256–512 mg/kg).
# For dose–response studies, a 6 hourly dosing regimen of 1–32 mg/kg was studied in the thigh infection model. Mice were infected with E. coli […], 15, 51 or 71 or K. pneumoniae ATCC 43816, 17, 58 or 74.
# Animals were humanely euthanized 24 h (t = 24 h) after the first dose, unless the welfare of the animals necessitated earlier termination, following animal welfare regulations. Excised thighs were transferred to a pre-cooled 14 mL polypropylene tube containing 2 mL of PBS and were homogenized using a T25 ULTRA-TURRAX (IKA-Werke GmbH & Co, Staufen, Germany). A 10-fold dilution series was prepared and 3 × 10 μL was plated per dilution. The following day, colonies were counted and the number of cfu per thigh was calculated.
# plasma proteins [4] = details: clinical studies; cited from earlier work
# Method: A previously published population PK model[19] and Monte Carlo simulations was used to estimate the fAUCs of 5000 patients treated with 200 mg q24h (MicLab 2.71) taking into account protein-binding rates ranging from 36% to 98% as previously reported.[20–23] The PTA was calculated for isolates with MICs ranging from 0.25 to 4 mg/L. || In clinical studies, the protein binding of polymyxin B is much higher than reported in mice, with protein binding in plasma up to 99% for polymyxin B.[22],[26],[27] This applies to colistin as well.[5],[28] Therefore, the PK/PD targets based on the unbound fraction are necessary for translating PK/PD data of polymyxin B to the clinic.
smiles,measurement,setting,value
"CC[C@H](C)CCCCC(=O)N[C@@H](CCN)C(=O)N[C@H](C(=O)N[C@@H](CCN)C(=O)N[C@H]1CCNC(=O)[C@H]([C@@H](C)O)NC(=O)[C@H](CCN)NC(=O)[C@H](CCN)NC(=O)[C@H](CC(C)C)NC(=O)[C@@H](Cc2ccccc2)NC(=O)[C@H](CCN)NC1=O)[C@@H](C)O [polymyxin B, Polymyxin B sulphate salt] (X1-[Dab]T[Dab][Dab][Dab][dF]L[Dab][Dab]T; lactam 4-C)",Unbound fraction,plasma proteins [1],8.6%
same,%fu (percent fraction unbound),plasma proteins [2],20% ± 4.0%
same,Mice in which the last (fourth) administration was not tolerated,[3]; 32 mg/kg q6h (TDD 128 mg/kg) s.c.,2/4
same,Tolerability,"[3]; doses >64 mg/kg s.c., dose fractionation studies, neutropenic infected mice",not tolerated
same,Protein binding in plasma,plasma proteins [4],up to 99%
